Test [1] has as its system Staphylococcus aureus ATCC 6538, Enterobacter aerogenes ATCC 13048, and Escherichia coli ATCC 8739. Nature of the test: Biocidal efficacy: minimum biocide concentration for 99.9% bacterial kill in inoculated salt solution with re-challenges. In kind it is cell-based. The note with it: alone or in the combination, 37° C. The procedure: (§1) The synergy indexes reported in the following examples are calculated using the following equation: Synergy Index=Ca/CA+Cb/CB
Ca: Concentration of biocide A required to achieve a certain level of bacterial kill when used in combination with B.
CA: Concentration of biocide A required to achieve a certain level of bacterial kill when used alone.
Cb: Concentration of biocide B required to achieve a certain level of bacterial kill when used in combination with A.
CB: Concentration of biocide B required to achieve a certain level of bacterial kill when used alone.
(§2) A synergy index (SI) of 1 indicates additivity, a synergy index of less than 1 indicates synergy, and a synergy index greater than 1 indicates antagonism.
A sterile salt solution (0.2203 g of CaCl2, 0.1847 g of MgSO4, and 0.2033 g of NaHCO3 in 1 L water) is inoculated with approximately 10^7 CFU/mL of Staphylococcus aureus ATCC 6538, Enterobacter aerogenes ATCC 13048, and Escherichia coli ATCC 8739. Aliquots of the cell suspension are then treated with THPS, BIT, and combinations of these actives at selected concentrations and incubated at 37° C. for 14 days. After incubation for 24 hours, 3 days, and 7 days, the aliquots are re-challenged with bacterial suspension of the same bacteria at a final bacterial concentration of 10^5 CFU/mL. The biocidal efficacy is measured at 2 hours and 14 days by determining the minimum biocide concentration for 99.9% bacterial kill in the aliquots. Synergy Index is then calculated. Table 1 and 2 summarize the efficacy of each biocide and their combinations at 2 hour and 14 day treatment time respectively, and the resulting Synergy Index of each combination.

In test [2] the test system is Candida albican, ATCC #10231. Nature of the test: 96 well micro titer plate MIC / synergy assay in SDB. In kind it is cell-based. As to conditions: alone or in the combination, 48 hours. As for the experimental part: as §1, §2

Consider `O=c1[nH]sc2ccccc12` [BIT, 1,2-benzisothiazolin-3-one], for which the “Concentration (ppm active) for 99.9% bacterial kill in 2 hours, BIT” value in test [1] (BIT concentration, 2 hour treatment) was greater than 300 ppm active. The “Concentration (ppm active) for 99.9% bacterial kill in 14 days, BIT” value in test [1] (BIT concentration, 14 day treatment, re-challenged at 24 hours, 3 days, 7 days) was found to be 150 ppm active.
As to `Cn1sc2ccccc2c1=O` [MBIT, 2-methyl-1,2-benzisothiazolin-3-one], the “Minimum Inhibitory Concentration against Candida albican (ppm), MBIT” value in test [2] (MBIT concentration) is listed as 0.375 ppm.
As for “tetrakis (hydroxymethyl) phosphonium sulfate [THPS]”, the “Minimum Inhibitory Concentration against Candida albican (ppm), THPS” value in test [2] (THPS concentration) was found to be 1000 ppm. Also, the “Concentration (ppm active) for 99.9% bacterial kill in 2 hours, THPS” value in test [1] (THPS concentration, 2 hour treatment) amounted to 38 ppm active. In addition, the “Concentration (ppm active) for 99.9% bacterial kill in 14 days, THPS” value in test [1] (THPS concentration, 14 day treatment, re-challenged at 24 hours, 3 days, 7 days) is on record as greater than 300 ppm active.

The values above are taken from US9474278B2, “Biocidal compositions and methods of use” (Dow Global Technologies LLC, priority 2011, dated 2016).
